# Data: article PMC4561207 (Child's nervous system : ChNS : official journal of the …, 2015)
# Entries after “also recorded” stand apart in the source; their conditions may differ.
# Assay: Toxicities attributed to Cediranib
# Format: in vivo, human
smiles,measurement,setting,value
"COc1cc2c(Oc3ccc4[nH]c(C)cc4c3F)ncnc2cc1OCCCN1CCCC1 [cediranib, Cediranib]","Eye disorders - Other, specify, events (patients)",grade 3 TOX,1(1)
same,"Fatigue, events (patients)",grade 3 TOX,2(2)
same,"Headache, events (patients)",grade 3 TOX,2(2)
same,"Hydrocephalus, events (patients)",grade 3 TOX,1(1)
same,"Hypertension, events (patients)",grade 3 TOX,10(10)
same,"Hypertriglyceridemia, events (patients)",grade 3 TOX,1(1)
same,"Hypokalemia, events (patients)",grade 3 TOX,2(1)
same,"Hyponatremia, events (patients)",grade 3 TOX,3(3)
same,"Lipase increased, events (patients)",grade 3 TOX,1(1)
same,"Lymphocyte count decreased, events (patients)",grade 3 TOX,5(3)
same,"Nausea, events (patients)",grade 3 TOX,1(1)
same,"Neutrophil count decreased, events (patients)",grade 3 TOX,2(2)
same,"Palmar-plantar erythrodysesthesia syndrome, events (patients)",grade 3 TOX,3(3)
same,"Proteinuria, events (patients)",grade 3 TOX,3(3)
same,"Reversible posterior leukoencephalopathy syndrome, events (patients)",grade 3 TOX,1(1)
same,"Vomiting, events (patients)",grade 3 TOX,1(1)
same,"Weight loss, events (patients)",grade 3 TOX,1(1)
same,"White blood cell decreased, events (patients)",grade 3 TOX,1(1)
same,"Alanine aminotransferase increased, events (patients)",grade 4 TOX,1(1)
same,"Aspartate aminotransferase increased, events (patients)",grade 4 TOX,1(1)
same,"Hypothyroidism, events (patients)",grade 4 TOX,1(1)
same,"Lymphocyte count decreased, events (patients)",grade 4 TOX,1(1)
same,"Nervous system disorders - Other, specify, events (patients)",grade 4 TOX,1(1)
same,"Papilledema, events (patients)",grade 4 TOX,1(1)
same,"fatigue, number of patients","human, in vivo",16
same,left ventricular dysfunction,"human, in vivo",No left ventricular dysfunction was identified in any of the patients; also recorded: No dose-limiting decreases in left ventricular function were observed
same,"palmar-plantar erythrodysesthesia syndrome, number of patients","human, in vivo",7
same,"hypertension, percentage of patients",of 48 eligible patients,77%
same,"hypothyroidism, number of patients",of 48 eligible patients,15
same,"hypothyroidism, percentage of patients",of 48 eligible patients,31%
same,"proteinuria, number of patients",of 48 eligible patients,20
same,"proteinuria, percentage of patients",of 48 eligible patients,42%
same,"hypertension, number of patients","of 48 eligible patients, all dose levels",37
same,"diarrhea grade 3, number of patients",of thirty-two patients with diarrhea,2
same,effect on bone growth: bone-related AEs,short duration of drug exposure in the majority of patients,no bone-related AEs were identified
same,"Abdominal pain, events (patients)",total TOX,10(10)
same,"Acidosis, events (patients)",total TOX,1(1)
same,"Alanine aminotransferase increased, events (patients)",total TOX,65(28)
same,"Alkaline phosphatase increased, events (patients)",total TOX,2(2)
same,"Anal mucositis, events (patients)",total TOX,1(1)
same,"Anal pain, events (patients)",total TOX,1(1)
same,"Anemia, events (patients)",total TOX,3(3)
same,"Anorexia, events (patients)",total TOX,13(10)
same,"Arthralgia, events (patients)",total TOX,1(1)
same,"Aspartate aminotransferase increased, events (patients)",total TOX,43(21)
same,"Back pain, events (patients)",total TOX,2(2)
same,"Blood bilirubin increased, events (patients)",total TOX,13(7)
same,"Blurred vision, events (patients)",total TOX,1(1)
same,"Bone pain, events (patients)",total TOX,2(1)
same,"Capillary leak syndrome, events (patients)",total TOX,1(1)
same,"Cardiac troponin I increased, events (patients)",total TOX,1(1)
same,"Chest wall pain, events (patients)",total TOX,1(1)
same,"Cholesterol high, events (patients)",total TOX,1(1)
same,"Chronic kidney disease, events (patients)",total TOX,1(1)
same,"Confusion, events (patients)",total TOX,1(1)
same,"Constipation, events (patients)",total TOX,6(2)
same,"Cough, events (patients)",total TOX,1(1)
same,"Creatinine increased, events (patients)",total TOX,1(1)
same,"Dehydration, events (patients)",total TOX,4(4)
same,"Depressed level of consciousness, events (patients)",total TOX,1(1)
same,"Depression, events (patients)",total TOX,1(1)
same,"Diarrhea, events (patients)",total TOX,61(32)
same,"Dizziness, events (patients)",total TOX,5(3)
same,"Dry mouth, events (patients)",total TOX,1(1)
same,"Dry skin, events (patients)",total TOX,1(1)
same,"Dyspepsia, events (patients)",total TOX,3(3)
same,"Dysphasia, events (patients)",total TOX,1(1)
same,"Edema face, events (patients)",total TOX,1(1)
same,"Edema limbs, events (patients)",total TOX,1(1)
same,"Endocrine disorders - Other, specify, events (patients)",total TOX,1(1)
same,"Enterocolitis, events (patients)",total TOX,1(1)
same,"Epistaxis, events (patients)",total TOX,5(4)
same,"Eye disorders - Other, specify, events (patients)",total TOX,1(1)
same,"Fatigue, events (patients)",total TOX,18(16)
same,"Fecal incontinence, events (patients)",total TOX,1(1)
same,"Fever, events (patients)",total TOX,1(1)
same,"Flushing, events (patients)",total TOX,3(1)
same,"GGT increased, events (patients)",total TOX,1(1)
same,"Gastritis, events (patients)",total TOX,1(1)
same,"Gastrointestinal disorders - Other, specify, events (patients)",total TOX,2(2)
same,"Headache, events (patients)",total TOX,10(7)
same,"Hematuria, events (patients)",total TOX,5(3)
same,"Hemoglobin increased, events (patients)",total TOX,6(2)
same,"Hoarseness, events (patients)",total TOX,1(1)
same,"Hydrocephalus, events (patients)",total TOX,1(1)
same,"Hypercalcemia, events (patients)",total TOX,3(2)
same,"Hyperglycemia, events (patients)",total TOX,9(8)
same,"Hyperkalemia, events (patients)",total TOX,2(2)
same,"Hypermagnesemia, events (patients)",total TOX,7(5)
same,"Hypernatremia, events (patients)",total TOX,5(4)
same,"Hypertension, events (patients)",total TOX,57(37)
same,"Hyperthyroidism, events (patients)",total TOX,2(2)
same,"Hypertriglyceridemia, events (patients)",total TOX,1(1)
same,"Hypoalbuminemia, events (patients)",total TOX,26(13)
same,"Hypocalcemia, events (patients)",total TOX,17(8)
same,"Hypoglycemia, events (patients)",total TOX,3(3)
same,"Hypokalemia, events (patients)",total TOX,16(12)
same,"Hypomagnesemia, events (patients)",total TOX,7(5)
same,"Hyponatremia, events (patients)",total TOX,12(6)
same,"Hypophosphatemia, events (patients)",total TOX,14(8)
same,"Hypothyroidism, events (patients)",total TOX,21(15)
same,"Hypoxia, events (patients)",total TOX,1(1)
same,"INR increased, events (patients)",total TOX,1(1)
same,"Intracranial hemorrhage, events (patients)",total TOX,4(4)
same,"Investigations - Other, specify, events (patients)",total TOX,2(2)
same,"Joint effusion, events (patients)",total TOX,1(1)
same,"Leukoencephalopathy, events (patients)",total TOX,1(1)
same,"Lipase increased, events (patients)",total TOX,2(1)
same,"Lymphocyte count decreased, events (patients)",total TOX,24(10)
same,"Malaise, events (patients)",total TOX,2(1)
same,"Mucositis oral, events (patients)",total TOX,3(3)
same,"Myalgia, events (patients)",total TOX,2(2)
same,"Nausea, events (patients)",total TOX,19(10)
same,"Nervous system disorders - Other, specify, events (patients)",total TOX,1(1)
same,"Neutrophil count decreased, events (patients)",total TOX,20(10)
same,"Non-cardiac chest pain, events (patients)",total TOX,1(1)
same,"Oral pain, events (patients)",total TOX,2(2)
same,"Pain in extremity, events (patients)",total TOX,4(4)
same,"Pain, events (patients)",total TOX,1(1)
same,"Palmar-plantar erythrodysesthesia syndrome, events (patients)",total TOX,17(7)
same,"Papilledema, events (patients)",total TOX,1(1)
same,"Pericardial effusion, events (patients)",total TOX,1(1)
same,"Peripheral motor neuropathy, events (patients)",total TOX,1(1)
same,"Platelet count decreased, events (patients)",total TOX,25(18)
same,"Pleural effusion, events (patients)",total TOX,1(1)
same,"Proteinuria, events (patients)",total TOX,36(20)
same,"Rash acneiform, events (patients)",total TOX,2(2)
same,"Rash maculo-papular, events (patients)",total TOX,5(5)
same,"Rectal pain, events (patients)",total TOX,1(1)
same,"Renal and urinary disorders - Other, specify, events (patients)",total TOX,1(1)
same,"Respiratory, thoracic and mediastinal disorders - Other, specify, events (patients)",total TOX,1(1)
same,"Reversible posterior leukoencephalopathy syndrome, events (patients)",total TOX,2(1)
same,"Seizure, events (patients)",total TOX,1(1)
same,"Serum amylase increased, events (patients)",total TOX,1(1)
same,"Skin and subcutaneous tissue disorders - Other, specify, events (patients)",total TOX,1(1)
same,"Skin ulceration, events (patients)",total TOX,1(1)
same,"Stomach pain, events (patients)",total TOX,2(2)
same,"Urinary frequency, events (patients)",total TOX,1(1)
same,"Urinary retention, events (patients)",total TOX,1(1)
same,"Vascular disorders - Other, specify, events (patients)",total TOX,2(2)
same,"Voice alteration, events (patients)",total TOX,2(2)
same,"Vomiting, events (patients)",total TOX,27(13)
same,"Weight loss, events (patients)",total TOX,3(3)
same,"White blood cell decreased, events (patients)",total TOX,18(11)
